According to ChEMBL document CHEMBL3882737, “Fused heterocyclic compounds as ion channel modulators” (2013):

What was measured:
Oryctolagus cuniculus [1] = test: Anti-ischemic activity in anesthetized New Zealand rabbit heart assessed as reduction in ischemia-induced ST segment elevation by measuring MAPD90_ATX levels at 1 uM plasma concentration at 0.1 to 0.4 mg/kg, iv bolus dose dosed 30 mins before ischemia followed by reperfusion; format: functional
Oryctolagus cuniculus [2] = test: Effect on heart rate in anesthetized New Zealand rabbit ischemia-induced ST segment elevation model at 0.1 to 0.4 mg/kg, iv bolus dose dosed 30 mins before ischemia followed by reperfusion; format: ADME, organism-based; conditions: in vivo, 0.5 h
Oryctolagus cuniculus [3] = test: Anti-ischemic activity in anesthetized New Zealand rabbit heart assessed as reduction in ischemia-induced ST segment elevation at 0.1 to 0.4 mg/kg, iv bolus dose dosed 30 mins before ischemia followed by reperfusion; format: functional, organism-based
Oryctolagus cuniculus [4] = test: Anti-ischemic activity in anesthetized New Zealand rabbit heart assessed as reduction in ischemia-induced myocardial electrical dysfunction at 0.1 to 0.4 mg/kg, iv bolus dose dosed 30 mins before ischemia followed by reperfusion; format: functional, organism-based
Oryctolagus cuniculus [5] = test: Effect on blood pressure in anesthetized New Zealand rabbit ischemia-induced ST segment elevation model at 0.1 to 0.4 mg/kg, iv bolus dose dosed 30 mins before ischemia followed by reperfusion; format: ADME, organism-based; conditions: in vivo, 0.5 h
Oryctolagus cuniculus [6] = test: Effect on ECG intervals in anesthetized New Zealand rabbit ischemia-induced ST segment elevation model at 0.1 to 0.4 mg/kg, iv bolus dose dosed 30 mins before ischemia followed by reperfusion; format: ADME, organism-based; conditions: in vivo, 0.5 h
[7] = biological target: NaV1.5 (peak sodium current) (Homo sapiens, UniProt Q14524); test: Inhibition of human NaV1.5 expressed in HEK293 cells assessed as use dependent blocking of cell membrane depolarization-induced peak sodium currents at 1 uM at 0 mV and 3 Hz stimulation at holding potential of -100 mV by whole cell patch clamp Qpatch method; format: cell-based; conditions: HEK293 cells that express human NaV1.5
Sequence of NaV1.5 (peak sodium current) (Q14524 whole entry): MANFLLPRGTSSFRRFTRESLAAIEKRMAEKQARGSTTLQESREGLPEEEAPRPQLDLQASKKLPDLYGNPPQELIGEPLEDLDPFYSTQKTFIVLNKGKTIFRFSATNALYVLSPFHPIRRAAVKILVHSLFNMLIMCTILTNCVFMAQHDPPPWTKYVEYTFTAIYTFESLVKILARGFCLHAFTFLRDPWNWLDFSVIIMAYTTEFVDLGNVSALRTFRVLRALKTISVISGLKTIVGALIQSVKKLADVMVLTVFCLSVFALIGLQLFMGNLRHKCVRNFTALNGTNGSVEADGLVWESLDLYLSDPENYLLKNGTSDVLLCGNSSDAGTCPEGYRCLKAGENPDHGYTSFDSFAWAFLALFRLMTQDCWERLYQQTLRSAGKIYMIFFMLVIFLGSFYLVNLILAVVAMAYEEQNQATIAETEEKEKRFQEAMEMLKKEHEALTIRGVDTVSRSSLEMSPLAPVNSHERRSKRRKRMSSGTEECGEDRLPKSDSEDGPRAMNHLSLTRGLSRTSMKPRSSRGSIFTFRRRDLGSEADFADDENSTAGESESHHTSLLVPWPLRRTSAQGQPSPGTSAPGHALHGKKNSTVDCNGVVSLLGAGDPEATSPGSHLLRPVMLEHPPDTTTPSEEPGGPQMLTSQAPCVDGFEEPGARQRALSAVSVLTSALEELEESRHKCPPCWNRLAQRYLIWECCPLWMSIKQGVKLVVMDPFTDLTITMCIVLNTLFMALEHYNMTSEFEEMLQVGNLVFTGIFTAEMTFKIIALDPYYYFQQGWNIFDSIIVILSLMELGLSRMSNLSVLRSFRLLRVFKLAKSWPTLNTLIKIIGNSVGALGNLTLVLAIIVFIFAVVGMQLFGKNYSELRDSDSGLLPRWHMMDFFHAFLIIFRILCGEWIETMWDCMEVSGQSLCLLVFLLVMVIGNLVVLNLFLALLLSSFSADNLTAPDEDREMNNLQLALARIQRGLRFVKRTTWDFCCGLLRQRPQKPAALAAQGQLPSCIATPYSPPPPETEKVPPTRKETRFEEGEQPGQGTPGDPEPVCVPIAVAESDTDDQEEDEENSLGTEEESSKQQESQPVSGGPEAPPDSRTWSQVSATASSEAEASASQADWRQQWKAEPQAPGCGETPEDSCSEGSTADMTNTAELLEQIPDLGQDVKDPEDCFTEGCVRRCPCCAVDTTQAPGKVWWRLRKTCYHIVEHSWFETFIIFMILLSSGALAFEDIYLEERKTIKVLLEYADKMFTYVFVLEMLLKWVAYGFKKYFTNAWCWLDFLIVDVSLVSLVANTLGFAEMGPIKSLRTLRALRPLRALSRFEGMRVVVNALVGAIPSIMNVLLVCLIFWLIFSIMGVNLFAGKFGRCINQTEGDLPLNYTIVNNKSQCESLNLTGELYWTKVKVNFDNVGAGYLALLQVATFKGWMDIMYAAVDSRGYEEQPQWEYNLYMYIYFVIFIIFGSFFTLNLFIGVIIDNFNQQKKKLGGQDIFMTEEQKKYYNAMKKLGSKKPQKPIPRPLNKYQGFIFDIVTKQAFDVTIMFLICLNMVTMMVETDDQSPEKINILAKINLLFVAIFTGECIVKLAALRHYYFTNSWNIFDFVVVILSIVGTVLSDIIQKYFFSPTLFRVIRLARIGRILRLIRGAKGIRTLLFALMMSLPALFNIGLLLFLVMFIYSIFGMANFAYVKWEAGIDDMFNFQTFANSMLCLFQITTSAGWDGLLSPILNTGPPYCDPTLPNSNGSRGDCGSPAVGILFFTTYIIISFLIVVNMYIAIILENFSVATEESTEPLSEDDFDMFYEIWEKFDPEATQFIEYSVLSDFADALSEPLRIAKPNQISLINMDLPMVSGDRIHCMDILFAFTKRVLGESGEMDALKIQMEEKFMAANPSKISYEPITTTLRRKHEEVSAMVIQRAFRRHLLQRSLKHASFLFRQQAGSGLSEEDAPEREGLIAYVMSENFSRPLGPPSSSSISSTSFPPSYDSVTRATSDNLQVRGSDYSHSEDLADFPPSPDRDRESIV

[8] = biological target: Sodium channel protein type 5 subunit alpha (Homo sapiens, UniProt Q14524); test: Inhibition of human NaV1.5 expressed in HEK293 cells assessed as blocking of tefluthrin-induced late sodium currents at 1 uM using -20 mV voltage steps at holding potential of -120 mV by whole cell patch clamp Qpatch method; format: cell-based
Sequence of Sodium channel protein type 5 subunit alpha (Q14524 whole entry): as above

For `O=C1c2cc(C#Cc3ccc(OC(F)(F)F)cc3)ccc2OCCN1Cc1ncccn1`, the “inhibition (INH)” value (Oryctolagus cuniculus [1]) was -25%.

With `O=C1c2cc(-c3ccc(Cl)cc3)ccc2OCCN1Cc1ncccn1` the “inhibition (INH)” value (Oryctolagus cuniculus [1]) was -69%.

For `O=C1c2cc(-c3ccc(OC(F)(F)F)cc3)ccc2OCCN1Cc1ncccn1` [ELECLAZINE], the “inhibition (INH)” value (Oryctolagus cuniculus [1]) was -56%, the Activity (Oryctolagus cuniculus [2]) was “Non-Toxic” and the inhibition (Oryctolagus cuniculus [3]) was “Dose-dependent effect”. For the same compound, the inhibition (Oryctolagus cuniculus [4]) was “Dose-dependent effect”, the Activity (Oryctolagus cuniculus [5]) was “Non-Toxic” and the Activity (Oryctolagus cuniculus [6]) was “Non-Toxic”.

For `COc1cc(OC)nc(CN2CCOc3ccc(-c4ccc(OC(F)(F)F)cc4)cc3C2=O)n1`, the “inhibition (INH)” value (Oryctolagus cuniculus [1]) was -27%.

For `CC(C)(C)c1ccc(-c2ccc3c(c2)C(=O)N(Cc2ncccn2)CCO3)cc1`, the “inhibition (INH)” value (Oryctolagus cuniculus [1]) was -50%.

`O=C1c2cc(-c3ccc(C(F)(F)F)cc3F)ccc2OCCN1Cc1ncccn1` gave an inhibition at 1 µM [7] of 10 to 11%.

In the case of `O=C1c2cc(-c3ccc(C(F)(F)F)cc3)ccc2OCCN1Cc1ncccn1`, the “inhibition (INH)” value (Oryctolagus cuniculus [1]) was -62%, the Activity (Oryctolagus cuniculus [2]) was “Non-Toxic” and the inhibition (Oryctolagus cuniculus [3]) was “Dose-dependent effect”. The inhibition (Oryctolagus cuniculus [4]) was “Dose-dependent effect”, the Activity (Oryctolagus cuniculus [5]) was “Non-Toxic” and the Activity (Oryctolagus cuniculus [6]) was “Non-Toxic”.

In the case of `O=C1c2cc(-c3ccc(OC(F)(F)F)cc3)ccc2OCCN1Cc1ccc2ccccc2n1`, the “inhibition (INH)” value (Oryctolagus cuniculus [1]) was -10%.

`O=C1c2cc(-c3ccc(C(F)(F)F)cc3)ccc2OCCN1Cc1cn2ccccc2n1` was tested, and the “inhibition (INH)” value (Oryctolagus cuniculus [1]) was -49% and the inhibition at 1 µM [8] was 32 to 33%.

`O=C(c1ncccn1)N1CCOc2ccc(-c3ccc(OC(F)(F)F)cc3)cc2C1` was tested, and the “inhibition (INH)” value (Oryctolagus cuniculus [1]) was -47%.

In the case of `O=C1c2cc(C#Cc3ccc(C(F)(F)F)cc3)ccc2OCCN1Cc1ncccn1`, the “inhibition (INH)” value (Oryctolagus cuniculus [1]) was -49%.

`Cc1ccnc(CN2CCOc3cnc(-c4ccc(OC(F)(F)F)cc4)cc3C2=O)n1` was tested, and the “inhibition (INH)” value (Oryctolagus cuniculus [1]) was -34%.

In the case of `O=C1c2cc(-c3ccc(OC(F)(F)F)cc3)ccc2OCCN1Cn1cc(Cl)cn1`, the “inhibition (INH)” value (Oryctolagus cuniculus [1]) was -23%.
